# Experimental data from patent US12448389B2, “BRM targeting compounds and associated methods of use” (Prelude Therapeutics Incorporated, priority 2020, dated 2025).
# What was measured:
# [1] = target: T1, SMARCA2-HiBiT (Homo sapiens, UniProt P51531); test: SMARCA2 HiBiT degradation assay in HeLa cells; assay type: cell-based; conditions: 18 hours incubation; for DC50: read-out: HeLa_HiBit-SM2 DC50; for Dmax: HeLa, read-out: HeLa-HiBit-SM2 Dmax (%)
# T1 construct: SMARCA2-HiBiT knock-in Hela monoclonal cell (CS302366); host or cells: HeLa monoclonal knock-in line (CRISPR HiBiT knock-in at the endogenous locus, heterozygous)
# Outline: (§1)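 HeLa monoclonal lines with heterozygous HiBiT knock-in were seeded at 2500 cells/well in EMEM with 10% FBS and treated with compound for 18 h at 37 °C. Remaining tagged protein was measured by Nano-Glo HiBiT lytic luminescence after 30–60 min at RT, and values came from curve fitting.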
# [2] = target: T2, SMARCA4-HiBiT (Homo sapiens, UniProt P51532); test: SMARCA4 HiBiT degradation assay in HeLa cells; assay type: cell-based; conditions: 18 hours incubation; for DC50: read-out: HeLa-HiBit-SM4 DC50; for Dmax: HeLa, read-out: HeLa-HiBit-SM4 Dmax (%)
# T2 construct: SMARCA4-HiBiT knock-in Hela monoclonal cell (CS3023226); host or cells: HeLa monoclonal knock-in line (CRISPR HiBiT knock-in at the endogenous locus, heterozygous)
# Outline: as §1
# T2 sequence (P51532 whole entry): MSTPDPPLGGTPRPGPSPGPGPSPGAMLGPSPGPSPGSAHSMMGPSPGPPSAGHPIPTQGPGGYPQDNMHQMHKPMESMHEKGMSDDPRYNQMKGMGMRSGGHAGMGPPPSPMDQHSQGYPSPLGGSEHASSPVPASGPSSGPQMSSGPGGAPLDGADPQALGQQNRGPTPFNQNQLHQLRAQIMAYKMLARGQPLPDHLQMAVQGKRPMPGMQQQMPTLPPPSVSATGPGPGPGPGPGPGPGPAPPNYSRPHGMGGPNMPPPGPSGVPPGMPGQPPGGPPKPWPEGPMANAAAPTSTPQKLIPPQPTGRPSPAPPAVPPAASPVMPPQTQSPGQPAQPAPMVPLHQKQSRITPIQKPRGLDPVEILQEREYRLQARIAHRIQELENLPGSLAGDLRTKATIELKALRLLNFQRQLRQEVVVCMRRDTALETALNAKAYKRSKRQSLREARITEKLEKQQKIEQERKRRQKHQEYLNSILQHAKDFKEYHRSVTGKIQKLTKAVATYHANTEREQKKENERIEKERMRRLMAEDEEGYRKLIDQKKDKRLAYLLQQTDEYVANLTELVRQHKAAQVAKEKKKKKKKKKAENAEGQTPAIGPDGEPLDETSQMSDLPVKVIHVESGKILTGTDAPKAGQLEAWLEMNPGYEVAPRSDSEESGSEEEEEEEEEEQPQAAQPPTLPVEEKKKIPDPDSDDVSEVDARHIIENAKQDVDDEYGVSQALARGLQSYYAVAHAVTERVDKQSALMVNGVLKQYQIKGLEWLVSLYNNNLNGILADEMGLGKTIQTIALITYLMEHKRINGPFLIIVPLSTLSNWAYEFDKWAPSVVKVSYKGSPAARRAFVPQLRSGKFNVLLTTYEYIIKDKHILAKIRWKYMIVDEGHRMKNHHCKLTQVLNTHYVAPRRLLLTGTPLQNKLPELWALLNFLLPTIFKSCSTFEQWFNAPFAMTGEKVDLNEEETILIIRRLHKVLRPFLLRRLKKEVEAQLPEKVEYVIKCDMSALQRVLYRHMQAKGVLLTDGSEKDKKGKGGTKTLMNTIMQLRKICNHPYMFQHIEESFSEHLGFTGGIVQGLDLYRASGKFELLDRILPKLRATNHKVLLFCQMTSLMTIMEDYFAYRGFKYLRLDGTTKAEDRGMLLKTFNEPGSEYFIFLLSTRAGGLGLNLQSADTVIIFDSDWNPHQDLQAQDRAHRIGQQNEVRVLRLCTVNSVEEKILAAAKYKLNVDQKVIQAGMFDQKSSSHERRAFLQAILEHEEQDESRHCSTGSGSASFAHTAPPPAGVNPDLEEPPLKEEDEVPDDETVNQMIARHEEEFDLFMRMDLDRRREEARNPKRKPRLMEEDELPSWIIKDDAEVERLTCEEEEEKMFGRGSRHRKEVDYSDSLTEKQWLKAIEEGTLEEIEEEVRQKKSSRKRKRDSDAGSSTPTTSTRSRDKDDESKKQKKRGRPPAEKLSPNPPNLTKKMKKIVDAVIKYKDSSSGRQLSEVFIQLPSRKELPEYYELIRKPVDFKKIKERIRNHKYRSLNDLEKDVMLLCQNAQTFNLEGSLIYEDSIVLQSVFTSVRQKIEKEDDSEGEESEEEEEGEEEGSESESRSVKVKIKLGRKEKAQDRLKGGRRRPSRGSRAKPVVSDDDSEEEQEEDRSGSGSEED
# T1 sequence (P51531 whole entry): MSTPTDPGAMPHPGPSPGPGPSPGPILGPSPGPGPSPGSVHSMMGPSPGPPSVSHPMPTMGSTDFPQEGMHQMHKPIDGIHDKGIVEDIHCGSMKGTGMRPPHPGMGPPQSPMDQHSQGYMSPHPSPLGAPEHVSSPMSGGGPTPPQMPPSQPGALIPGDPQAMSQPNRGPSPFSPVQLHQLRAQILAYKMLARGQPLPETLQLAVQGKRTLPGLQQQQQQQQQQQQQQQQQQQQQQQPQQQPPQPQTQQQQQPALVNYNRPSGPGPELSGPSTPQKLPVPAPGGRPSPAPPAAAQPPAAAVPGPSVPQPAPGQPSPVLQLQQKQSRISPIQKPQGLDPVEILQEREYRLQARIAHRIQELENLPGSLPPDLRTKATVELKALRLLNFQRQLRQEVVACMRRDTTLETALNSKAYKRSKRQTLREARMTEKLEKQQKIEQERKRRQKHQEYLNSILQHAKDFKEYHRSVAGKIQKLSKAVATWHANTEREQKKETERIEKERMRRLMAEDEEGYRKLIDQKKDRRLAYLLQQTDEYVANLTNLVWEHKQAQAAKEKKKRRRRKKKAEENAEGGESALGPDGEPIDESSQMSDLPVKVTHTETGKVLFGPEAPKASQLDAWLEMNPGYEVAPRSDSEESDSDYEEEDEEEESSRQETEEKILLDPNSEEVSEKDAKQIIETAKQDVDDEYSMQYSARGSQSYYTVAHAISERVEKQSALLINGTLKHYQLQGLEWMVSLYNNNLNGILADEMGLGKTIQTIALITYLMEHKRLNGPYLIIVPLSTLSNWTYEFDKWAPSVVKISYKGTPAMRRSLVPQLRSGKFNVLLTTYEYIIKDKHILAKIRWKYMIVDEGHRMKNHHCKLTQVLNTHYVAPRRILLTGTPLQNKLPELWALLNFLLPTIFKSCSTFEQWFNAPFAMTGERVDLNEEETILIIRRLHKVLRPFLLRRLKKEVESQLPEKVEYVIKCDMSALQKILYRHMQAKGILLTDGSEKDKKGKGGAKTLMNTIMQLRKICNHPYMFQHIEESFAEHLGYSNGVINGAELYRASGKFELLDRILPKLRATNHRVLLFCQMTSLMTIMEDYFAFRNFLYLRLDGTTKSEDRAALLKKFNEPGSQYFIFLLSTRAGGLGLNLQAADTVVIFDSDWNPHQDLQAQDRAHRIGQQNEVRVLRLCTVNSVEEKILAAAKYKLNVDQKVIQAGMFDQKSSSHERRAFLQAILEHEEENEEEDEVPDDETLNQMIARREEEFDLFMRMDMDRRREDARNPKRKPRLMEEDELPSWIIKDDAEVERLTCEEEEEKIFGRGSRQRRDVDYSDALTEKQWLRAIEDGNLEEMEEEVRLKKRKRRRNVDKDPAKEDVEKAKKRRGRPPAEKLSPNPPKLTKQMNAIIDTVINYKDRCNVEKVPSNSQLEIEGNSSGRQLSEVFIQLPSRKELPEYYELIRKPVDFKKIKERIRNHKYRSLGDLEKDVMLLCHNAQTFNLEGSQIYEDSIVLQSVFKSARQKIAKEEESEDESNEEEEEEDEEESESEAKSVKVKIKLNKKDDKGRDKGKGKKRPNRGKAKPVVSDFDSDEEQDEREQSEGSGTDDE
Structure (SMILES),DC50 [1] [nM],Dmax [1] [%],DC50 [2] [nM],Dmax [2] [%]
"O=C1CCC(N2Cc3cc(CN4CCC(CCc5cnc(N6CCN7c8cc(-c9ccccc9O)nnc8NC[C@H]7C6)nc5)CC4)ccc3C2=O)C(=O)N1 (stereo partly drawn) [Example 64, 3-(5-((4-(2-(2-((S)-2-(2-hydroxyphenyl)-5,6,6a,7,9,10-hexahydro-8H-pyrazino[1′,2′:4,5]pyrazino[2,3-c]pyridazin-8-yl)pyrimidin-5-yl)ethyl)piperidin-1-yl)methyl)-1-oxoisoindolin-2-yl)piperidine-2,6-dione]",< 10,> 85,< 10,75 to 85
"O=C1CCC(N2C(=O)c3ccc(N4CCC(CN5C[C@@H]6[C@H](C5)[C@H]6CN5CCN6c7cc(-c8ccccc8O)nnc7NC[C@H]6C5)CC4)cc3C2=O)C(=O)N1 (stereo partly drawn) [Example 42, 2-(2,6-dioxopiperidin-3-yl)-5-(4-(((1R,5S,6r)-6-(((S)-2-(2-hydroxyphenyl)-5,6,6a,7,9,10-hexahydro-8H-pyrazino[1′,2′:4,5]pyrazino[2,3-c]pyridazin-8-yl)methyl)-3-azabicyclo[3.1.0]hexan-3-yl)methyl)piperidin-1-yl)isoindoline-1,3-dione]",< 10,> 85,< 10,50 to 75
"O=C1CCC(N2C(=O)c3ccc(N4CCC(CN5CCO[C@H](CN6CCN7c8cc(-c9ccccc9O)nnc8NC[C@H]7C6)C5)CC4)cc3C2=O)C(=O)N1 (stereo partly drawn) [Example 75, 2-(2,6-dioxopiperidin-3-yl)-5-(4-(((R)-2-(((S)-2-(2-hydroxyphenyl)-5,6,6a,7,9,10-hexahydro-8H-pyrazino[1′,2′:4,5]pyrazino[2,3-c]pyridazin-8-yl)methyl)morpholino)methyl)piperidin-1-yl)isoindoline-1,3-dione]",< 10,75 to 85,< 10,75 to 85
"O=C1CCC(N2Cc3cc(N4CCC(CN5C[C@@H]6[C@H](C5)[C@H]6CN5CCN6c7cc(-c8ccccc8O)nnc7NC[C@H]6C5)CC4)ccc3C2=O)C(=O)N1 (stereo partly drawn) [Example 92, 3-(5-(4-(((1R,5S,6r)-6-(((S)-2-(2-hydroxyphenyl)-5,6,6a,7,9,10-hexahydro-8H-pyrazino[1′,2′:4,5]pyrazino[2,3-c]pyridazin-8-yl)methyl)-3-azabicyclo[3.1.0]hexan-3-yl)methyl)piperidin-1-yl)-1-oxoisoindolin-2-yl)piperidine-2,6-dione]",< 10,> 85,< 10,75 to 85
"C[C@H]1CN2c3cc(-c4ccccc4O)nnc3NC[C@H]2CN1C[C@H]1[C@@H]2CN(CC3CCN(c4ccc5c(c4)CN(C4CCC(=O)NC4=O)C5=O)CC3)C[C@@H]21 (stereo partly drawn) [Example 57, 3-(5-(4-(((1R,5S,6r)-6-(((6aS,9S)-2-(2-hydroxyphenyl)-9-methyl-5,6,6a,7,9,10-hexahydro-8H-pyrazino[1′,2′:4,5]pyrazino[2,3-c]pyridazin-8-yl)methyl)-3-azabicyclo[3.1.0]hexan-3-yl)methyl)piperidin-1-yl)-1-oxoisoindolin-2-yl)piperidine-2,6-dione]",< 10,50 to 75,< 10,≤ 50

# Next, values leading:
DC50 [1] [nM],Dmax [1] [%],DC50 [2] [nM],Dmax [2] [%],Structure (SMILES)
< 10,75 to 85,10 to 100,75 to 85,"C[C@H]1CN2c3cc(-c4ccccc4O)nnc3NC[C@H]2CN1C[C@H]1[C@@H]2CN(C[C@H]3CCN(c4ccc5c(c4)C(=O)N(C4CCC(=O)NC4=O)C5)C[C@@H]3F)C[C@@H]21 (stereo partly drawn) [Example 204, 3-[5-[(3R,4R)-3-fluoro-4-[[(1S,5R)-6-[[(10S,13S)-4-(2-hydroxyphenyl)-13-methyl-1,5,6,8,12-pentazatricyclo[8.4.0.02,7]tetradeca-2,4,6-trien-12-yl]methyl]-3-azabicyclo[3.1.0]hexan-3-yl]methyl]piperidin-1-yl]-3-oxo-1H-isoindol-2-yl]piperidine-2,6-dione]"
< 10,> 85,< 10,> 85,"O=C1CCC(N2C(=O)c3ccc(N4CC5(CC(CN6CCC(CN7CCN8c9cc(-c%10ccccc%10O)nnc9NC[C@H]8C7)CC6)C5)C4)cc3C2=O)C(=O)N1 (stereo partly drawn) [Example 147, 2-(2,6-dioxopiperidin-3-yl)-5-(6-((4-(((S)-2-(2-hydroxyphenyl)-5,6,6a,7,9,10-hexahydro-8H-pyrazino[1′,2′:4,5]pyrazino[2,3-c]pyridazin-8-yl)methyl)piperidin-1-yl)methyl)-2-azaspiro[3.3]heptan-2-yl)isoindoline-1,3-dione]"
< 10,75 to 85,< 10,50 to 75,"C[C@H]1CN(CC2CCN(c3ccc4c(c3)C(=O)N(C3CCC(=O)NC3=O)C4=O)CC2)CCN1C(=O)N1CCN2c3cc(-c4ccccc4O)nnc3NC[C@H]2C1 (stereo partly drawn) [Example 116, 2-(2,6-dioxopiperidin-3-yl)-5-(4-(((S)-4-((S)-2-(2-hydroxyphenyl)-6,6a,7,8,9,10-hexahydro-5H-pyrazino[1′,2′:4,5]pyrazino[2,3-c]pyridazine-8-carbonyl)-3-methyl-piperazin-1-yl)methyl)piperidin-1-yl)isoindoline-1,3-dione]"
< 10,75 to 85,10 to 100,75 to 85,"O=C1CCC(N2Cc3ccc(N4CCC(CN5CC6(C5)CN(C(=O)N5CCN7c8cc(-c9ccccc9O)nnc8NC[C@H]7C5)C6)CC4)cc3C2=O)C(=O)N1 (stereo partly drawn) [Example 101, 3-(6-(4-((6-((S)-2-(2-hydroxyphenyl)-6,6a,7,8,9,10-hexahydro-5H-pyrazino[1′,2′:4,5]pyrazino[2,3-c]pyridazine-8-carbonyl)-2,6-diazaspiro[3.3]heptan-2-yl)methyl)piperidin-1-yl)-1-oxoisoindolin-2-yl)piperidine-2,6-dione]"
< 10,50 to 75,10 to 100,≤ 50,"O=C1CCC(N2Cc3cc(OCCN4CCC(CN5CCN6c7cc(-c8ccccc8O)nnc7NC[C@H]6C5)CC4)ccc3C2=O)C(=O)N1 (stereo partly drawn) [Example 207, 3-(5-(2-(4-(((S)-2-(2-hydroxyphenyl)-5,6,6a,7,9,10-hexahydro-8H-pyrazino[1′,2′:4,5]pyrazino[2,3-c]pyridazin-8-yl)methyl)piperidin-1-yl)ethoxy)-1-oxoisoindolin-2-yl)piperidine-2,6-dione]"
< 10,> 85,10 to 100,50 to 75,C[C@@H]1C[C@H](CN2C[C@@H]3[C@H](C2)[C@H]3CN2CCN3c4cc(-c5ccccc5O)nnc4NC[C@H]3C2)CCN1c1cc2c(cc1F)C(=O)N(C1CCC(=O)NC1=O)C2=O (stereo partly drawn) [Example 176]
< 10,> 85,< 10,75 to 85,"O=C1CCC(N2Cc3cc(C4CCN(C5CCCN(CCCN6CCN7c8cc(-c9ccccc9O)nnc8NC[C@H]7C6)C5)CC4)ccc3C2=O)C(=O)N1 (stereo partly drawn) [Example 210, 3-(5-(1′-(3-((S)-2-(2-hydroxyphenyl)-5,6,6a,7,9,10-hexahydro-8H-pyrazino[1′,2′:4,5]pyrazino[2,3-c]pyridazin-8-yl)propyl)-[1,3′-bipiperidin]-4-yl)-1-oxoisoindolin-2-yl)piperidine-2,6-dione]"
